Laboratory results from US11680086B2, “Lipopeptide for potently inhibiting HIV, derivative thereof, pharmaceutical composition thereof and use thereof” (Institute of Pathogen Biology, Chinese Academy of Medical …, priority 2017, dated 2023).
Peptide text beside a SMILES is read from it. * marks the point of attachment. Palmitoyl = CCCCCCCCCCCCCCCC(=O)*

Key:
[1] = target: N39 (NHR-derived polypeptide of gp41) (Human immunodeficiency virus type 1 group M subtype B, UniProt P04578); format: binding, HIV-1; conditions: 10 μM each, PBS pH 7.2
Sequence of N39 (NHR-derived polypeptide of gp41) (P04578 528-566): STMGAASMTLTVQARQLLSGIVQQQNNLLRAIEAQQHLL

[2] = tested on: HIV-2 strain ROD (infectious); assay: inhibition of HIV-2; format: cell-based; conditions: HIV-2 ROD
HIV-1 = conditions: cell fusion, entry and replication; compared with parent or control peptide
Excerpt: HIV-1 pseudovirus-mediated cell entry inhibition assay: basic steps included: (1) Preparation of HIV-1 pseudovirus: the 293T cells were co-transfected with a plasmid expressing the envelope protein (Env) of HIV-1 strain NL4-3 (i.e., a recombinant expression plasmid obtained by inserting the gene encoding the envelope protein (ENV) of the D36G mutant of the HIV-1 strain NL4-3 in the Table 2 of the Reference 14 listed in the Background Art into the vector pcDNA3.1(−)) and the HIV-1 backbone plasmid pSG3Δenv (provided by the AIDS Reagent Program of National Institutes of Health (NIH), catalog number: 11051) by using a cell transfection reagent, incubated in a cell incubator of 37° C. and 5% CO2 for 6 hours, and then the medium was changed, and the cells were further incubated for 48 hours. The cell culture supernatant containing pseudovirus particles was pipetted and filtered with a 0.45 μm filter to collect the supernatant, then 20% fetal bovine serum (FBS) was added thereto, the final solution was transferred to a polypropylene tube, and stored at −80° C. for ready for use or directly subjected to virus titration. (2) Titration of HIV-1 pseudovirus: the viruses were diluted by 5 folds in a 96-well plate, and 4 replicate wells with 8 gradients were set to a final volume of 100 microliters. The TZM-b1 cells were trypsinized and counted, and the cells were diluted to 1×10^5 cells/ml with DMEM complete medium; 100 μl of cells dilution (containing 15 μg/ml DEAE-dextran) per well were added and cultured at 37° C. and 5% CO2 for 48 hours. The 96-well plate was then taken from the cell culture incubator. The supernatant was discarded from the wells. To each well, 30 μl of a cell lysate was added, and after 10 minutes, 100 μl of a luciferase detection reagent was added. 100 μl of liquid was pipetted from each well and added to a corresponding 96-well white plate, and the luminescence values were read by a microplate photometer. The virus titer was calculated by the Reed-Muench method. […]

[3] = circular dichroism secondary structure analysis of the inhibitors themselves; format: physicochemical; conditions: 10 μM, 20 μM and 40 μM in PBS
[4] = tested on: NL4-3 pseudovirus carrying T-20 resistance mutation site of NHR; assay: inhibition of T-20 resistant strains; format: cell-based, HIV-1; conditions: strains with single or double mutations

CCCCCCCCCCCCCCCC(=O)NCCCC[C@H](NC(=O)[C@H](CCC(=O)O)NC(=O)[C@H](CC(C)C)NC(=O)[C@H](CCCCN)NC(=O)[C@H](CCCCN)NC(=O)[C@H](CC(C)C)NC(=O)[C@H](CCC(=O)O)NC(=O)[C@H](CCC(=O)O)NC(=O)[C@H](CCC(=O)O)NC(=O)[C@H](CC(N)=O)NC(=O)[C@H](CCCCN)NC(=O)[C@H](CCCCN)NC(=O)[C@H](CCC(N)=O)NC(=O)[C@H](CCC(N)=O)NC(=O)[C@H](CCC(=O)O)NC(=O)[C@H](CCC(=O)O)NC(=O)[C@H](C)NC(=O)[C@H](CCCCN)NC(=O)[C@H](CCCCN)NC(=O)[C@H](CC(C)C)NC(=O)[C@H](CC(C)C)NC(=O)[C@H](CCC(=O)O)NC(=O)[C@H](CCC(=O)O)NC(=O)[C@@H](NC(=O)[C@H](CC(N)=O)NC(=O)[C@H](C)NC(=O)[C@H](CCC(=O)O)NC(=O)[C@H](CC(C)C)NC(C)=O)[C@@H](C)CC)C(N)=O [LP-51] (Ac-LEANIEELLKKAEEQQKKNEEELKKLEK(Palmitoyl)-NH2)
Tm value of the complex with N39 [1]: 72 °C
inhibitory activity against HIV-2 (in words) [2]: extremely potent inhibitory activity
antiviral activity (in words) (HIV-1): comparable to that of the LP-50
secondary structure of the inhibitor itself (in words) [3]: distinct helical structure
inhibitory activity against T-20 resistant strains (in words) [4]: thousands to tens of thousands of times better than that of the LP-40
